Assay results as given in PubChem BioAssay (NCI).
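Step 1: Grow cells in 96-well plates. Step 2: Expose to compound for 48 hours at 5 concentrations. Step 3: Interpolate endpoints linearly; if unreached, use highest concentration. The concentration for 50% growth inhibition is given as GI50. TGI: concentration producing complete growth inhibition.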

What was measured:
Experiment in all cases: NCI tumour cell line growth inhibition, 48 h
HCC-2998 colon = tested on: HCC-2998 colon
HCT-116 colon = tested on: HCT-116 colon
HCT-15 colon = tested on: HCT-15 colon
M14 melanoma = tested on: M14 melanoma
NCI-H23 lung = tested on: NCI-H23 lung
OVCAR-3 ovarian = tested on: OVCAR-3 ovarian
SK-MEL-5 melanoma = tested on: SK-MEL-5 melanoma
UACC-62 melanoma = tested on: UACC-62 melanoma
HS 578T breast = tested on: HS 578T breast
MDA-MB-231 breast = tested on: MDA-MB-231 breast

Row | Compound | TGI (HCC-2998 colon) | TGI (HCT-116 colon) | TGI (HCT-15 colon) | TGI (M14 melanoma) | TGI (NCI-H23 lung) | TGI (OVCAR-3 ovarian) | TGI (SK-MEL-5 melanoma) | TGI (UACC-62 melanoma) | GI50 (HCT-116 colon) | GI50 (HCT-15 colon) | GI50 (HS 578T breast) | TGI (HS 578T breast) | GI50 (M14 melanoma) | GI50 (MDA-MB-231 breast) | TGI (MDA-MB-231 breast) | GI50 (NCI-H23 lung) | GI50 (OVCAR-3 ovarian) | GI50 (SK-MEL-5 melanoma) | GI50 (UACC-62 melanoma) | GI50 (HCC-2998 colon)
1 | CC(=O)OC(C)(C)C[N+](=O)[O-] | > 100 µM | > 100 µM | > 100 µM | > 100 µM | > 100 µM | > 100 µM | – | – | – | – | – | – | – | – | – | – | – | – | – | –
2 | CC1(C)C=C(N2CCN(C3=CC(C)(C)NC(C)(C)C3)CC2)CC(C)(C)N1 | > 100 µM | > 100 µM | > 100 µM | > 100 µM | > 100 µM | > 100 µM | > 100 µM | > 100 µM | – | – | – | – | – | – | – | – | – | – | – | –
3 | CC(O)(c1ccc(OCCC[N+](C)(C)C)cc1)C(C)(O)c1ccc(OCCC[N+](C)(C)C)cc1 (centres undefined) | > 100 µM | > 100 µM | > 100 µM | > 100 µM | > 100 µM | > 100 µM | – | > 100 µM | – | – | – | – | – | – | – | – | – | – | – | –
4 | Cc1ccc2c(c1)C(=O)/C(=C/c1cccc(OCC(=O)c3ccc(Cl)cc3)c1)CS2 | – | 3.85 µM | 15.3 µM | 27.4 µM | 23.4 µM | 18 µM | 19.6 µM | 25.8 µM | 1.89 µM | 2.74 µM | 1.54 µM | 4.42 µM | 4.07 µM | 8.21 µM | 76.1 µM | 3.03 µM | 5.58 µM | 6.95 µM | 9.14 µM | –
5 | CCC1=CCC(P(=O)(c2ccccc2)c2ccccc2)CC1C (centres undefined) | – | 63.8 µM | > 100 µM | > 100 µM | > 100 µM | > 100 µM | 70.8 µM | > 100 µM | – | – | – | – | – | – | – | – | – | – | – | –
6 | CCN(CC)CCCNc1nccc2c(C)c3[nH]c4ccncc4c(=O)c3cc12 | 13.4 µM | 2.03 µM | > 100 µM | 9.64 µM | 7.34 µM | 8.88 µM | 14.1 µM | 3.72 µM | – | – | – | – | – | – | – | – | – | – | – | –
7 | CCCCCCCCC1C(C)c2c([nH]c3ccccc23)C2C(=O)N(c3ccccc3)C(=O)C21 (centres undefined) | 25.6 µM | 12.5 µM | 25.6 µM | 28 µM | 14.7 µM | 16.7 µM | 31.7 µM | 36.4 µM | – | – | – | – | – | – | – | – | – | – | – | –
8 | Cc1cc(=O)n2c(cc3cccccc32)n1 | > 100 µM | – | > 100 µM | > 100 µM | > 100 µM | > 100 µM | – | > 100 µM | – | – | – | – | – | – | – | – | – | – | – | –
9 | C=C(C)C1CC=C(C)C(O)([C@@]2(O)C[C@H](C(=C)C)CC=C2C)C1 (some centres undefined) | 35.7 µM | 40.1 µM | – | 39.9 µM | 43.3 µM | 29.6 µM | 28.3 µM | 55.9 µM | – | – | – | – | – | – | – | – | – | – | – | –
10 | O=C(O)C1C2C=CC(O2)C1C(=O)NCc1ccncc1 (centres undefined) | – | > 100 µM | – | > 100 µM | – | > 100 µM | > 100 µM | > 100 µM | – | – | – | > 100 µM | – | – | > 100 µM | – | – | – | – | –
11 | c1ccc(N2CCN(CCCN3CCc4c([nH]c5ccccc45)C3c3cccnc3)CC2)cc1 (centres undefined) | > 100 µM | > 100 µM | > 100 µM | 59.8 µM | > 100 µM | > 100 µM | > 100 µM | > 100 µM | – | – | – | – | – | – | – | – | – | – | – | –
12 | Cc1nccc2c3ccc(OCc4cn(-c5ccc(Br)cc5)nn4)cc3n(CCCc3ccccc3)c12 | > 100 µM | > 100 µM | – | 2.47 µM | – | > 100 µM | > 100 µM | 7.08 µM | 7.2 µM | – | 1.31 µM | 4.56 µM | 1.14 µM | – | – | – | > 100 µM | 3.92 µM | 2.46 µM | > 100 µM
13 | CC(C)c1ccc(C(O)(C(=O)O)c2ccc(C(C)C)cc2)cc1 | – | > 100 µM | > 100 µM | > 100 µM | > 100 µM | 60.7 µM | > 100 µM | > 100 µM | – | – | – | > 100 µM | – | – | – | – | – | – | – | –
14 | CCCc1nn(C)c(CCC(=O)N(Cc2ccccc2)Cc2ccccc2)c1CC | > 100 µM | > 100 µM | > 100 µM | > 100 µM | > 100 µM | > 100 µM | > 100 µM | > 100 µM | – | – | – | – | – | – | – | – | – | – | – | –
15 | C=C1CCCC2OC(OC)CCC12 (centres undefined) | > 100 µM | > 100 µM | > 100 µM | > 100 µM | > 100 µM | > 100 µM | > 100 µM | > 100 µM | – | – | – | – | – | – | – | – | – | – | – | –
16 | CC1=C(C(=O)Nc2ccccc2C)C(c2ccccc2O)C(C(=O)Nc2ccccc2C)=C(C)N1 | 29.6 µM | 36.9 µM | 29.4 µM | 39.8 µM | > 100 µM | 36.3 µM | 61.8 µM | 35.7 µM | – | – | – | – | – | – | – | – | – | – | – | –
17 | CCOC(=O)Nc1cc2c(c(N)n1)N=C(c1ccccc1)CN2 | 0.0445 µM | – | – | > 49 µM | – | < 0.0001 µM | < 0.0001 µM | – | < 0.0001 µM | < 0.0001 µM | – | – | < 0.0001 µM | < 0.0001 µM | 0.00463 µM | < 0.0001 µM | < 0.0001 µM | < 0.0001 µM | – | –
18 | O=C1C(c2ccccc2)=[N+]([O-])c2cc([N+](=O)[O-])ccc21 | 77.4 µM | 53.4 µM | 56.5 µM | – | > 100 µM | 36.8 µM | 39.2 µM | 26.9 µM | – | – | – | – | – | – | – | – | – | – | – | –
19 | COc1ccc2c(c1)C(=O)/C(=C/c1cccc(OCC(=O)c3ccc([N+](=O)[O-])cc3)c1)CO2 | – | 2.67 µM | 6.92 µM | 4.32 µM | 6.33 µM | 3.72 µM | 8.05 µM | 9.36 µM | 1.33 µM | 2.17 µM | 2.73 µM | 12.2 µM | 2.19 µM | 3.67 µM | 14.2 µM | 2.52 µM | 1.94 µM | 2.79 µM | 2.82 µM | –
20 | O=C(CC1(O)C(=O)Nc2c(Cl)cc(Cl)cc21)c1ccc([N+](=O)[O-])cc1 (centres undefined) | > 100 µM | > 59.2 µM | > 100 µM | > 55.7 µM | > 78.9 µM | > 64.1 µM | > 57.3 µM | > 53.6 µM | – | – | – | – | – | – | – | – | – | – | – | –
21 | Nc1nc(N)c(CCCCc2ccccc2)c(/C=C/c2ccc([N+](=O)[O-])cc2)n1 | 9.04 µM | 6.52 µM | 7.09 µM | 9.24 µM | 33.4 µM | 8.4 µM | 16.3 µM | 7.46 µM | – | – | – | – | – | – | – | – | – | – | – | –
22 | COC(=O)/C(=N\Nc1nc(=S)[nH]n1N)C(C#N)c1ccc(Cl)cc1 (centres undefined) | > 100 µM | > 100 µM | > 100 µM | > 100 µM | > 100 µM | > 100 µM | – | > 100 µM | – | – | – | – | – | – | – | – | – | – | – | –
23 | O=c1oc2c(O)c(O)cc3c(=O)oc4c(O)c(O)cc1c4c23 | > 100 µM | > 100 µM | > 100 µM | > 100 µM | > 100 µM | 82.2 µM | > 100 µM | > 100 µM | – | – | – | – | – | – | – | – | – | > 100 µM | – | > 100 µM
24 | Cc1ccc(-c2nc3ccccc3c(=O)n2NC2OC(CO)C(O)C(O)C2O)cc1 (centres undefined) | > 100 µM | > 100 µM | > 100 µM | > 100 µM | > 100 µM | > 100 µM | > 100 µM | > 100 µM | – | – | – | – | – | – | – | – | – | – | – | –
